Results on three molecules are retold here after PMC9036655 (RSC Advances, 2021).

The subject of one test is M. tuberculosis H37Rv. Briefly: Antimycobacterial activity against M. tuberculosis H37Rv. The test is classed as cell-based, Mycobacterium tuberculosis. The note with it: Mycobacterium tuberculosis, H37RV, read-out: % inhibition 20 μg mL^−1, M. tuberculosis H37Rv; 20 μg mL^−1.
A further test concerns A549 cells. Briefly: Cytotoxicity, MTT assay, A549 cells. The test is classed as cell-based, Human. The note with it: for IC50: Homo sapiens, A549, 72 h, read-out: IC50 A549; for Selectivity index A549: IC50(A549)/MIC M. tb.
A further test relates to Vero cells. The test is described as follows: Cytotoxicity, MTT assay, Vero cells. The test is classed as cell-based, African green monkey. The settings on record: IC50(Vero)/MIC M. tb. On the technique in general: Tetrazolium dyes change colour on reduction, which living cells bring about.
Test [1] has as its system Escherichia coli Esbls^−16-23. Briefly: Antibacterial spectrum test, agar double dilution MIC. In kind it is cell-based.
Test [2] has as its system Escherichia coli Esbls^−16-24. Described as above. In kind it is cell-based.
The test system of test [3] is Klebsiella pneumoniae Esbls^−17-11. Described as above. In kind it is cell-based.
Test [4] concerns Klebsiella pneumoniae Esbls^−17-12. The test is described as above. In kind it is cell-based.
In test [5] the test system is Pseudomonas aeruginosa 17-2. The test is described as above. In kind it is cell-based. The note with it: 172.
Test [6] concerns Escherichia coli ATCC25922. The description is as above. The test is classed as cell-based.

In brackets after ≈: the same amount, converted by molar mass.

With `Cc1[nH]c(=O)c(CNC(=O)c2ccc(C(F)(F)F)o2)c2c1CCCC2` [6b33, N-((1-Methyl-3-oxo-2,3,5,6,7,8-hexahydroisoquinolin-4-yl)methyl)-5-(trifluoromethyl)furan-2-carboxamide], the inhibition at 20 µg/mL in the test with M. tuberculosis H37Rv came to 98.3%. For the same molecule, in the test on A549 cells, the IC50 is over 100 µg/mL and the “Selectivity index A549” value is given as over 50. Moreover, in the test on Vero cells, the “Selectivity index Vero” value is over 25.
Consider `Cc1[nH]c(=O)c(CNC(=O)c2ccc(F)nc2)c2c1CCCC2` [6b26, 6-Fluoro-N-((1-methyl-3-oxo-2,3,5,6,7,8-hexahydroisoquinolin-4-yl)methyl)nicotinamide], for which the inhibition at 20 µg/mL in the test with M. tuberculosis H37Rv was 94.1%. Besides, in the test with A549 cells, the 50% inhibitory concentration (IC50) was over 100 µg/mL and the “Selectivity index A549” value is over 63. Also, the “Selectivity index Vero” value in the test on Vero cells was over 31.
With `C[C@H]1COc2c(N3CCN(C)CC3)c(F)cc3c(=O)c(C(=O)O)cn1c23` [Levofloxacin tablets, Levofloxacin], the MIC in test [1] is 16 µg/mL (≈ 44.3 µM); in [2], under 0.008 µg/mL; in test [3] it was 0.03 µg/mL (≈ 0.083 µM); in [4], under 0.008 µg/mL; in [5], 16 µg/mL (≈ 44.3 µM); in test [6] it was under 0.008 µg/mL.

What is called inhibition is the share of the control response that was lost under treatment. The IC50 is the concentration that inhibits the measured activity by half. As usually defined, the MIC is the smallest concentration in the dilution series that meets the test's criterion for growth inhibition. Read a low MIC as inhibition by little substance.
